Experimental findings from patent US11970497B2, “Tricyclic AKR1C3 dependent KARS inhibitors” (Novartis AG, priority 2019, dated 2024) are described below.

A value given as a limit tells only on which side of the number the result lay.

One assay relates to H460 (NRF2 pathway mutant cell line with high AKR1C3 expression). Briefly: In vitro cell proliferation assay (CellTiter-Glo), H460. The class given is cell-based. The conditions noted are these: Homo sapiens, NCI-H460, 72 h, read-out: H460 Qualified absolute AC50. The text has this:
Cellular Proliferation Assay to Assess Compounds Activity in H460 (NRF2 Pathway Mutant Cell Line with High AKR1C3 Expression) and Hara (NRF2 Pathway Wild Type Cell Line with Low AKR1C3 Expression).
The cell lines A549 and H460 are NRF2 pathway mutant and specifically contain genetic alterations in KEAP1 (A549: G333C, H460: D236H) (Singh A. et al., 2006 PLoS Medicine 3(10) e420). In these cell lines the NRF2 pathway is constitutively active and these cells express high levels of NRF2 protein and NRF2 pathway target gene AKR1C3. […] They have low AKR1C3 expression.
In Vitro Cell Proliferation Assay
Day 1, for H460 800 cells/well or 40 μL of 2×10^4 cells/mL and for Hara 2000 cells/well or 40 μL of 5×10^4 cells/mL medium (RPMI-1640 supplemented with 10% fetal bovine serum and 1% penicillin/streptomycin) were seeded into 384-well tissue culture plates. Day 2, compounds were serially diluted 1:5 to generate 8 point dose response curves and added to cells for a final top concentration of 10 μM. DMSO (1%) control and MG132 (30 μM) controls are added in columns 23 and 24 respectively on each plate for positive and negative control. After incubation for 3 days at 37° C./5% CO2, 30 μl of CellTiter-Glo reagent (Promega) was added and the plates were incubated for 10 min on plate shaker. The amount of luminescence was determined using a Perkin Elmer Envision plate reader. CellTiter-Glo luminescence values of cells treated with DMSO and MG132 controls were used to normalize the data and calculate percentage activity and AC50s of compounds using the Helios Software suite.
Background: ATP-based viability assays read luminescence as a measure of living cells.
Broadly, the AC50 is the midpoint of the concentration-response curve, whichever way the signal moves. On to `O=C1CC2(CCN(C(=O)NCc3ccc(OP(=O)(O)O)cc3)CC2)Nc2ccc(F)cc21` [Example 4, 4-((6′-fluoro-4′-oxo-3′,4′-dihydro-1′H-spiro[piperidine-4,2′-quinoline]-1-carboxamido)methyl)phenyl dihydrogen phosphate], for which the AC50 stood at 6 nM.

The same assay, now with this note: Homo sapiens, NCI-H460, 72 h; H460 cells, 3 days, CellTiter-Glo, top concentration 10 μM; read-out: H460 Qualified absolute AC50.
Consider `CN(C)CCNC(=O)c1cc(CNC(=O)N2CCC3(CC2)CC(=O)c2cc(F)ccc2N3)ccc1F` [Example 81, N-(3-((2-(dimethylamino)ethyl)carbamoyl)-4-fluorobenzyl)-6′-fluoro-4′-oxo-3′,4′-dihydro-1′H-spiro[piperidine-4,2′-quinoline]-1-carboxamide], for which the AC50 was found to be 352 nM. Turning to `Nc1ccc(CNC(=O)N2CCC3(CC2)C[C@@H](O)c2cc(F)ccc2N3)cc1F` (single isomer, unassigned) [Example 170a], the AC50 came out at 11 nM. Turning to `Cc1coc(C)c1CNC(=O)N1CCC2(CC1)CC(=O)c1cc(F)ccc1N2` [Example 34, N-((2,4-dimethylfuran-3-yl)methyl)-6′-fluoro-4′-oxo-3′,4′-dihydro-1′H-spiro[piperidine-4,2′-quinoline]-1-carboxamide], the AC50 amounted to 75 nM. Turning to `C#CCNC(=O)c1cc(CNC(=O)N2CCC3(CC2)CC(=O)c2cc(F)ccc2N3)ccc1F` [Example 128, 6′-fluoro-N-(4-fluoro-3-(prop-2-yn-1-ylcarbamoyl)benzyl)-4′-oxo-3′,4′-dihydro-1′H-spiro[piperidine-4,2′-quinoline]-1-carboxamide], the AC50 is 1480 nM. Regarding `Cc1cc(CNC(=O)N2CCC3(CC2)CC(=O)c2cc(F)ccc2N3)c(C(F)(F)F)o1` [Example 127, 6′-fluoro-N-((5-methyl-2-(trifluoromethyl)furan-3-yl)methyl)-4′-oxo-3′,4′-dihydro-1′H-spiro[piperidine-4,2′-quinoline]-1-carboxamide], the AC50 was 1430 nM. Regarding `Cc1occc1CNC(=O)N1CCC2(CC1)CC(=O)c1cc(F)ccc1N2` [Example 59, 6′-fluoro-N-((2-methylfuran-3-yl)methyl)-4′-oxo-3′,4′-dihydro-1′H-spiro[piperidine-4,2′-quinoline]-1-carboxamide], the AC50 came to 185 nM. Turning to `CN1c2ccc(F)cc2C(=O)CC12CCN(C(=O)NCc1ccc(F)c(NCC(C)(C)C(=O)N3CCOCC3)c1)CC2` [Example 113], the AC50 stood at 846 nM. Still for that read-out and setting: the value for `O=C(NCC(=O)C1CC1)c1cc(CNC(=O)N2CCC3(CC2)CC(=O)c2cc(F)ccc2N3)ccc1F` [Example 100, N-(3-((2-cyclopropyl-2-oxoethyl)carbamoyl)-4-fluorobenzyl)-6′-fluoro-4′-oxo-3′,4′-dihydro-1′H-spiro[piperidine-4,2′-quinoline]-1-carboxamide] was 518 nM. Same read-out and setting: the same measure for `Cc1ccc(CNC(=O)N2CCC3(CC2)CC(=O)c2cc(F)ccc2N3)o1` [Example 1, 6′-fluoro-N-((5-methylfuran-2-yl)methyl)-4′-oxo-3′,4′-dihydro-1′H-spiro[piperidine-4,2′-quinoline]-1-carboxamide]: 143 nM; for `O=C1CC2(CCN(C(=O)NCc3ccoc3C(F)(F)F)CC2)Nc2ccc(F)cc21` [Example 96, 6′-fluoro-4′-oxo-N-((2-(trifluoromethyl)furan-3-yl)methyl)-3′,4′-dihydro-1′H-spiro[piperidine-4,2′-quinoline]-1-carboxamide]: 489 nM; for `CN1c2ccc(F)cc2C(=O)CC12CCN(C(=O)NCc1ccc(F)c(C(=O)NCC(C)(C)O)c1)CC2` [Example 97, 6′-fluoro-N-(4-fluoro-3-((2-hydroxy-2-methylpropyl)carbamoyl)benzyl)-1′-methyl-4′-oxo-3′,4′-dihydro-1′H-spiro[piperidine-4,2′-quinoline]-1-carboxamide]: 491 nM. `Cc1c(CNC(=O)N2CCC3(CC2)CC(=O)c2cc(F)ccc2N3)ccc(F)c1C(N)=O` [Example 79, N-(3-carbamoyl-4-fluoro-2-methylbenzyl)-6′-fluoro-4′-oxo-3′,4′-dihydro-1′H-spiro[piperidine-4,2′-quinoline]-1-carboxamide]: the AC50 turned out to be 345 nM. On to `O=C(NC/C=C/CO)c1cc(CNC(=O)N2CCC3(CC2)CC(=O)c2cc(F)ccc2N3)ccc1F` [Example 122, (E)-6′-fluoro-N-(4-fluoro-3-((4-hydroxybut-2-en-1-yl)carbamoyl)benzyl)-4′-oxo-3′,4′-dihydro-1′H-spiro[piperidine-4,2′-quinoline]-1-carboxamide], for which the AC50 came out at 1110 nM. In the case of `O=C(NCc1ccc(CO)cc1)c1cc(CNC(=O)N2CCC3(CC2)CC(=O)c2cc(F)ccc2N3)ccc1F` [Example 32, 6′-fluoro-N-(4-fluoro-3-((4-(hydroxymethyl)benzyl)carbamoyl)benzyl)-4′-oxo-3′,4′-dihydro-1′H-spiro[piperidine-4,2′-quinoline]-1-carboxamide], the AC50 is 64 nM.

As to `CC(O)CNC(=O)c1cc(CNC(=O)N2CCC3(CC2)CC(=O)c2cc(F)ccc2N3C)ccc1F` (racemic) [Example 88, 6′-fluoro-N-(4-fluoro-3-((2-hydroxypropyl)carbamoyl)benzyl)-1′-methyl-4′-oxo-3′,4′-dihydro-1′H-spiro[piperidine-4,2′-quinoline]-1-carboxamide], the half-maximal activity concentration (AC50) came out at 421 nM.

Turning to `CN1c2ccc(F)cc2C(=O)CC12CCN(C(=O)NCc1ccc(F)c(NCC3COCCO3)c1)CC2` (stereo not drawn) [Example 31, N-(3-(((1,4-dioxan-2-yl)methyl)amino)-4-fluorobenzyl)-6′-fluoro-1′-methyl-4′-oxo-3′,4′-dihydro-1′H-spiro[piperidine-4,2′-quinoline]-1-carboxamide], the AC50 came out at 64 nM.

As to `CCc1noc(C)c1CNC(=O)N1CCC2(CC1)CC(=O)c1cc(F)ccc1N2` [Example 106, N-((3-ethyl-5-methylisoxazol-4-yl)methyl)-6′-fluoro-4′-oxo-3′,4′-dihydro-1′H-spiro[piperidine-4,2′-quinoline]-1-carboxamide], the AC50 was determined as 598 nM.

Take `CN1c2ccc(F)cc2C(=O)CC12CCN(C(=O)NCc1ccc(F)c(NCCC(=O)O)c1)CC2` [Example 148, 3-((2-fluoro-5-((6′-fluoro-1′-methyl-4′-oxo-3′,4′-dihydro-1′H-spiro[piperidine-4,2′-quinoline]-1-carboxamido)methyl)phenyl)amino)propanoic acid]: the AC50 was 4930 nM.

Regarding `Cc1ncc(CNC(=O)c2cc(CNC(=O)N3CCC4(CC3)CC(=O)c3cc(F)ccc3N4)ccc2F)o1` [Example 121, 6′-fluoro-N-(4-fluoro-3-(((2-methyloxazol-5-yl)methyl)carbamoyl)benzyl)-4′-oxo-3′,4′-dihydro-1′H-spiro[piperidine-4,2′-quinoline]-1-carboxamide], the AC50 came out at 1080 nM. For the molecule `Nc1ccc(CNC(=O)N2CCC3(CC2)C[C@H](O)c2cc(F)ccc2N3)cc1F` (single isomer, unassigned) [Example 170b], the concentration at half-maximal activity (AC50) was ≥ 17300 nM. As to `CN1c2ccc(F)cc2C(=O)CC12CCN(C(=O)NCc1ccc(F)c(NCCN3CCCC3=O)c1)CC2` [Example 90, 6′-fluoro-N-(4-fluoro-3-((2-(2-oxopyrrolidin-1-yl)ethyl)amino)benzyl)-1′-methyl-4′-oxo-3′,4′-dihydro-1′H-spiro[piperidine-4,2′-quinoline]-1-carboxamide], the AC50 is 443 nM. The same measure, in the same setting: the value for `Cc1ccc(CNC(=O)N2CCC3(CC2)CC(=O)c2cc(F)ccc2N3C)o1` [Example 7, 6′-fluoro-1′-methyl-N-((5-methylfuran-2-yl)methyl)-4′-oxo-3′,4′-dihydro-1′H-spiro[piperidine-4,2′-quinoline]-1-carboxamide] was 10 nM.

Regarding `O=C1CC2(CCN(C(=O)NCc3cn[nH]c3)CC2)Nc2ccc(F)cc21` [Example 37, N-((1H-pyrazol-4-yl)methyl)-6′-fluoro-4′-oxo-3′,4′-dihydro-1′H-spiro[piperidine-4,2′-quinoline]-1-carboxamide], the half-maximal activity concentration (AC50) came to 81 nM. As to `Cc1cc(CNC(=O)N2CCC3(CC2)CC(=O)c2cc(F)ccc2N3)n[nH]1` [Example 72, 6′-fluoro-N-((5-methyl-1H-pyrazol-3-yl)methyl)-4′-oxo-3′,4′-dihydro-1′H-spiro[piperidine-4,2′-quinoline]-1-carboxamide], the AC50 is 282 nM. As to `O=C1CC2(CCN(C(=O)NCc3ccc(Cl)o3)CC2)Nc2ccc(F)cc21` [Example 22, N-((5-chlorofuran-2-yl)methyl)-6′-fluoro-4′-oxo-3′,4′-dihydro-1′H-spiro[piperidine-4,2′-quinoline]-1-carboxamide], the AC50 is 37 nM. In the case of `O=C(NC1CC(O)C1)c1cc(CNC(=O)N2CCC3(CC2)CC(=O)c2cc(F)ccc2N3)ccc1F` (stereo not drawn) [Example 60, 6′-fluoro-N-(4-fluoro-3-((3-hydroxycyclobutyl)carbamoyl)benzyl)-4′-oxo-3′,4′-dihydro-1′H-spiro[piperidine-4,2′-quinoline]-1-carboxamide], the AC50 was 198 nM.
